What was measured:
Type in all cases: functional, cell-based
SK-BR-3 = experiment: Compound was tested for antiproliferative activity against human SK-BR-3 cancer cell lines
MKN-45 = experiment: Compound was tested for antiproliferative activity against human MKN45 cancer cell lines
A549 = experiment: Compound was tested for antiproliferative activity against human A549 cancer cell lines using MTT assay

Row | Structure (SMILES) | IC50 (SK-BR-3) | IC50 (MKN-45) | IC50 (A549)
1 | O=C(/C=C/c1ccc(CNC(=O)c2ccc(N3CCN(Cc4cccnc4)CC3)cc2)cc1)NO | 0.27 µM | 2.94 µM | 1.65 µM
2 | O=C(/C=C/c1ccc(CNC(=O)c2ccc(N3CCN(Cc4ccccn4)CC3)cc2)cc1)NO | 3.19 µM | 38.6 µM | 12 µM
3 | O=C(/C=C/c1ccc(CNC(=O)c2ccc(N3CCN(Cc4ccncc4)CC3)cc2)cc1)NO | 1.72 µM | 56.1 µM | 3.02 µM
4 | O=C(/C=C/C#Cc1ccc(NS(=O)(=O)c2ccccc2)cc1)NO [OXAMFLATIN] | 0.59 µM | 1.07 µM | 0.84 µM

— ChEMBL document CHEMBL1145944, “Synthesis and biological evaluation of 3-(4-substituted-phenyl)-N-hydroxy-2-propenamides, a new class of histone deacetylase inhibitors” (J Med Chem, 2003)
